{"source": "patent US12383527B2", "about": "“Methods for treating triple negative breast cancer using salvianolic acid B” (HOWARD UNIVERSITY, priority 2018, dated 2025)", "key": {"[1]": {"system": "proliferating cell nuclear antigen (PCNA)", "experiment": "Immunohistochemical staining of PCNA in MDA tumor xenografts", "assay_type": "in vivo, athymic nude mice", "conditions": "Sal-B 80 mg/kg three times per week; versus untreated; P<0.05", "description": "(§1) Human tumor xenografts in athymic nude mice. […] The animal protocol was approved by the Howard University Animal Care and Use Committee. Four-week-old female athymic nude mice (Nu/Nu) were obtained from Harlan Sprague Dawley (Indianapolis, IN). All mice were provided the Harlan Teklad #2018 Global 18% protein rodent diet and water ad libitum. Mice were housed in temperature-controlled rooms (74±2° F.) with a 12-hour alternating light-dark cycle. MDA cells (3×10^6/50 μL/spot) were subcutaneously injected into the both sides of lower back of mice using a 27-gauge needle. […]\n(§2) Immunohistochemical staining was performed as described previously (Hao Y, et al., “Enforced expression of miR-101 inhibits prostate cancer cell growth by modulating the COX-2 pathway in vivo,” Cancer Prev Res (Phila), 2011; 4: 1073-1083). […] For the quantification, ten high-magnification (40×) fields were randomly selected from each slide of tumors and the positive cells were counted. The protein expression was expressed as the average number of positive cells per high magnification field."}, "MDA tumor xenografts": {"system": "MDA tumor xenografts", "experiment": "Human tumor xenografts in athymic nude mice, tumor weight", "assay_type": "in vivo", "conditions": "Sal-B 80 mg/kg three times per week, intraperitoneal; day 37; mean±SD; untreated control 0.81±0.12 g", "description": "(§3) Human tumor xenografts in athymic nude mice. […] The animal protocol was approved by the Howard University Animal Care and Use Committee. Four-week-old female athymic nude mice (Nu/Nu) were obtained from Harlan Sprague Dawley (Indianapolis, IN). All mice were provided the Harlan Teklad #2018 Global 18% protein rodent diet and water ad libitum. Mice were housed in temperature-controlled rooms (74±2° F.) with a 12-hour alternating light-dark cycle. MDA cells (3×10^6/50 μL/spot) were subcutaneously injected into the both sides of lower back of mice using a 27-gauge needle. On day 10 after cell implantation, the mice with tumors (˜5 mm in diameter) were randomly divided into Sal-B treated, doxorubicin treated, and untreated groups (five mice per group), and were administrated Sal-B (80 mg/kg, three times per week), doxorubicin (4 mg/kg, every four weeks) and 0.9% saline (50 μl, three times per week), respectively, by intraperitoneal injection for a total of 37 days. […] All mice were sacrificed on day 37."}, "cyclin B1": {"system": "cyclin B1", "experiment": "Western blot of cyclin B1 expression in MDA and MCF-7 cells", "assay_type": "cell-based, human", "conditions": "Sal-B 50 μM and 100 μM, 24 hours", "description": "The expression of two cell cycle-related proteins—cyclin A and cyclin B1—was checked by Western blot. The expression of cyclin A and cyclin B1 was normalized by the expression of the internal control β-actin (lower panel). The cells were treated with 50 μM and 100 μM Sal-B, respectively, for 24 hours. Doxorubicin (0.1 μM and 1 μM) was used as a control. […] The results may be explained by that the cell cycle progression is controlled by a large set of molecules, although cyclin B1 is a key component in the control of cell cycle progression from G2 to M phase.\n(§4) The immunohistochemical results were consistent with those from Western blotting (FIG. 7, panel A). Western blot analysis was used to determine the expression of apoptosis-related proteins Bcl-XL, survivin, caspase-3 and caspase-8 (FIG. 7, panel A). β-actin was used as an internal control for Western blotting. The MCD-7 and MDA cells were treated with Sal-B (50 μM and 100 μM) and doxorubicin (0.1 μM and 1 μM), respectively, for 24 hours. Proteins were extracted from the cells with RIPA lysis buffer (Santa Cruz Biotechnology, Santa Cruz, CA) and the protein concentrations were quantified with Bio-Rad protein quantification kit. Whole-cell proteins were separated on 8% SDS-polyacrylamide gel, transferred to the polyvinylidene difluoride membrane (Bio-Rad), and then probed with the indicated primary antibodies overnight at 4° C. Washed blots were then incubated with horseradish peroxidase-conjugated anti-rabbit, anti-mouse, or anti-goat antibody (Santa Cruz Biotechnology), respectively, for one hour at room temperature. Blots were developed and visualized with ECL detection system (Bio-Rad)."}, "[2]": {"system": "glucosylceramide synthase (GCS)", "experiment": "Western blot of GCS expression in MDA and MCF-7 cells", "assay_type": "cell-based, human", "conditions": "for GCS protein level (normalized to β-actin): Sal-B 50 μM; for GCS expression, further effect versus 50 μM: Sal-B 100 μM", "description": "as §4\nTo understand the mechanism underlying increased ceramide accumulation, the expression levels of GCS and GM3 synthase were measured by Western blot analysis in MDA and MCF-7 cells treated by various concentrations of Sal-B (FIG. 8). The amount of protein expression was normalized by the expression of the internal control β-actin. […] Sal-B was found effective to down-regulate GCS and GM3 synthase expression in cancer cells."}, "Bcl-xL": {"system": "Bcl-xL", "experiment": "Immunohistochemical staining of Bcl-xL in MDA tumor xenografts", "assay_type": "in vivo, athymic nude mice", "conditions": "Sal-B 80 mg/kg three times per week; untreated tumors 11.8±3.0; P<0.05", "description": "as §1, §2"}, "GM3 synthase": {"system": "GM3 synthase", "experiment": "Western blot of GM3 synthase expression in MDA and MCF-7 cells", "assay_type": "cell-based, human", "description": "as §4\nTo understand the mechanism underlying increased ceramide accumulation, the expression levels of GCS and GM3 synthase were measured by Western blot analysis in MDA and MCF-7 cells treated by various concentrations of Sal-B (FIG. 8). […]"}, "MDA-MB-231 cells": {"system": "MDA-MB-231 cells", "experiment": "Colony formation assay", "assay_type": "cell-based, human", "conditions": "colonies grown 10 days", "description": "Colony formation assay. The inhibitory effect of Sal-B was further confirmed by colony formation assay. The colony formation assay was performed as described previously (Hao Y, et al., “Enforced expression of miR-101 inhibits prostate cancer cell growth by modulating the COX-2 pathway in vivo,” Cancer Prev Res (Phila). 2011; 4: 1073-1083). Briefly, MDA cells were seeded at a density of 300 cells per well in 6-well plates, cultured overnight, and then treated with Sal-B at different concentrations (1, 10, 20, 50, and 100 μM) for 24 hours. Following treatment, the old medium containing Sal-B was replaced with fresh drug-free media and the cells were allowed to grow for 10 days to permit colony formation from viable clonogenic cells. Colonies were stained with 0.1% trypan blue in 50% ethanol and were counted manually under microscopy with a grid printed on a transparent plastic sheet to keep track of colonies counted. The colonies containing more than 50 cells were considered to represent a viable clonogenic cell. The experiment was completed in triplicate for each treatment."}, "[3]": {"experiment": "Body weight and side effects of treated mice", "assay_type": "in vivo", "conditions": "applicant's previous studies", "description": "as §3"}, "MCF-7 cells": {"system": "MCF-7 cells", "experiment": "Cell cycle profile analysis by flow cytometry", "assay_type": "cell-based, human", "conditions": "Sal-B 50 μM and 100 μM, 24 hours", "description": "Cell cycle profile analysis using flow cytometry and Western blot analysis. To understand the effects of Sal-B on the cell cycle of cancer cells, the cell cycle profile was analyzed using flow cytometry. The cells from both cell lines were treated with Sal-B (50 and 100 µM) or doxorubicin (0.1 and 1 μM) for 24 hours and then fixed in chilled 80% ethanol. The fixed cells were incubated in a solution containing 100 μg/mL RNase at 37° C. water bath for 45 minutes. Propidium iodide (final concentration of 50 μg/ml) was then added to the cells and incubated in a 37° C. water bath for another 15 minutes. The analysis was carried out with a FACStar flow cytometer (Becton Dickinson, San Jose, CA). Ten thousand cells per sample were analyzed, cach sample was done in triplicate and the experiment was repeated three times."}}}
{"smiles": "O=C(/C=C/c1ccc(O)c2c1[C@H](C(=O)O[C@H](Cc1ccc(O)c(O)c1)C(=O)O)[C@@H](c1ccc(O)c(O)c1)O2)O[C@H](Cc1ccc(O)c(O)c1)C(=O)O", "note": "[Sal-B, Salvianolic acid B]", "values": [{"measurement": "PCNA levels in tumor xenografts", "setting": "[1]", "result": "higher in untreated MDA tumor xenografts"}, {"measurement": "average tumor weight", "setting": "MDA tumor xenografts", "result": "0.26 ± 0.06", "unit": "g"}, {"measurement": "cyclin B1 expression (normalized to β-actin)", "setting": "cyclin B1; MCF-7 cells", "result": "down-regulation"}, {"measurement": "cyclin B1 expression (normalized to β-actin)", "setting": "cyclin B1; MDA cells", "result": "down-regulation"}, {"measurement": "GCS protein level (normalized to β-actin)", "setting": "[2]; MCF-7 cells", "result": "sufficient to inhibit GCS protein level"}, {"measurement": "GCS expression, further effect versus 50 μM", "setting": "[2]; MCF-7 cells", "result": "No further inhibitory effect"}, {"measurement": "GCS protein level (normalized to β-actin)", "setting": "[2]; MDA cells", "result": "sufficient to inhibit GCS protein level"}, {"measurement": "GCS expression, further effect versus 50 μM", "setting": "[2]; MDA cells", "result": "No further inhibitory effect"}, {"measurement": "expression of Bcl-xL in tumors", "setting": "Bcl-xL", "result": "1.3±0.4 positive cells per high magnif"}, {"measurement": "expression of GM3 synthase (normalized to β-actin)", "setting": "GM3 synthase; MCF-7 cells, Sal-B 100 μM", "result": "significantly diminished"}, {"measurement": "expression of GM3 synthase (normalized to β-actin)", "setting": "GM3 synthase; MDA cells, Sal-B at both 50 μM and 100 μM", "result": "significantly diminished"}, {"measurement": "colony formation capability relative to control cells", "setting": "MDA-MB-231 cells; Sal-B 1 μM for 24 hours", "result": "approximately 69%"}, {"measurement": "colony formation capability", "setting": "MDA-MB-231 cells; Sal-B 100 μM for 24 hours", "result": "complete inhibition"}, {"measurement": "side effects", "setting": "[3]; Sal-B 80 mg/kg three times per week", "result": "no obvious side effects"}, {"measurement": "side effects at higher dosage", "setting": "[3]; Sal-B dosage higher than 80 mg/kg three times per week", "result": "weight loss in some mice"}, {"measurement": "changes in the cell cycle phases", "setting": "MCF-7 cells", "result": "no significant changes"}]}
